Measurements as given in US20180110777A1, “METHOD FOR REGULATION OF TELOMERE LENGTH” (The Johns Hopkins University, priority 2015, published 2018).
“And” between values parts separate entries of the source, which are not always exact repeats. Equal values may be shown once. “Also recorded” adds a separate entry of the source.

How the values were obtained:
[1] = test system: SL13 cells; assay: ADDIT assay (addition of de novo initiated telomeres; modified STELA with PacBio sequencing or Southern blot); format: cell-based, mouse; settings: for de novo telomere addition / telomere elongation in ADDIT assay (in words): PacBio sequencing of STELA products, compared to controls; for percentage of CCS reads with de novo telomere addition (mean and SEM): SL13 cells pretreated prior to doxycycline, 10 μM KU55933, 3 μM Olaparib, 100 nM siATM, multiple experiments
Description: To critically access the role of ATM, as well as other potential telomere length regulators, an assay was developed that measures telomere repeat addition in cells over 48 hr. CAST/EiJ mouse fibroblast cell line was engineered to (SL13) contain a conditional mTR allele and a modified chromosome 4 (chr4) with an internal 480 bp telomere ‘seed’ sequence followed by a unique I-Sce1 endonuclease cut site (FIG. 5 and see Experimental Procedures). The internal telomere ‘seed’ sequence can be conditionally exposed by I-Sce1 endonuclease cleavage (FIG. 1A) and then be elongated by telomerase in a manner similar to de novo telomere addition shown to occur in yeast (Diede and Gottschling, 1999, Cell 99, 723-733).
To better detect the telomere elongation, the single telomere length analysis (STELA) assay was modified (Baird et al., 2004, Hum Mol Genet 13, 1515-1524), to measure telomere length at the in vivo cut chr4. The linker, ‘telorette’, was ligated to the telomere and PCR amplified the telomere using the ‘teltail’ primer and an internal primer in the hygromycin resistance (HYG) sequence on the engineered chromosome (FIG. 1B). To determine the un-extended cut chromosome length in vitro, a different linker was designed, ‘IScerette’, which anneals to the 4-nt 3′ overhang created by the I-Sce1 endonuclease (FIG. 1B). PCR using the forward primers, F1 or F2, and the teltail generated products of predicted size on a Southern blot (data not shown).
To further verify telomere addition had occurred, the PCR products were sequenced with Pacific Biosciences (PacBio®) sequencing. PacBio® produces long sequence reads that allowed us to determine telomere length. While sequencing errors, predominantly point insertions and deletions, occurred as expected, the telomere repeats were easily recognizable. To assure products were full length, the PacBio® reads were filtered to examine only those that had the unique HYG sequence followed by the seed telomere repeat sequence and also had the ‘teltail’ primer sequence (FIG. 6). […] The I-Sce1 site is shown boxed (FIG. 1C). Three regions of variant telomere repeats were noted, evident as darker stripes in the aligned reads, that were present in the original SL13 clone, and served as useful sequence reference points (FIG. 1C). If there were degradation past these variants and then new TTAGGG (SEQ ID NO: 100) repeat synthesis in vivo, these landmarks would be removed.
The sequence length distribution in the ADDIT assay represents telomere elongation, incomplete telomere replication and in vivo end resection (as well as PacBio® sequencing errors).
Cell lines were grown in DMEM (Gibco) supplemented with 1% Penicillin/Streptomycin/Glutamine (PSG) and 10% heat inactivated FBS (Invitrogen). SL13 cells were grown in DMEM (Gibco) supplemented with 1% PSG and 10% Tet system approved FBS (Clontech, #631107). Cells were treated with ATM inhibitor KU55933 (R&D Systems, #3544), ATR inhibitor VE821 (Selleckchem, #S8007) or PARP1 inhibitor Olaparib (Selleckchem, #1060) at indicated concentrations or DMSO as a control. For the ADDIT assay, SL13 cells were treated with final concentration 2 μg/ml of doxycycline for typically 48 hr or as indicated.
The original STELA protocol used for human cells (Baird et al., 2004, Hum Mol Genet 13, 1515-1524) was modified to measure telomere lengths on the cut end of chr4 in SL13 cells. Briefly, genomic DNA was extracted using Puregene Core Kit A™ (Qiagen). 4 μg of genomic DNA was digested with Sph1 (NEB) and later diluted to 10 ng/μl in water. For the in vitro IScerette sample, genomic DNA was digested with SphI and I-SceI (NEB) prior to ligation. The ligation was carried out at 35° C. for at least 12 hr in a volume of 10 μl containing 10 ng of digested genomic DNA, 0.9 μM of telorette linkers or IScerette linker and 0.5 U of T4 DNA ligase (NEB) in 1×T4 ligation buffer. […]

[2] = test system: SL13 cells; assay: Bulk telomere length, Southern blot, SL13 long-term culture; format: cell-based, mouse
Description: ATM has been proposed to play different roles in signaling telomere dysfunction in human and mouse cells. Since it is not yet clear whether the damage signaling is mechanistically linked to telomere elongation, and given the discrepant reports of the role of ATM in human telomere length, the role of ATM in human cells was revisited.
As an independent test of Olaparib on telomere length, telomeres were examined by Southern blot in cultured SL13 cells grown in the presence of Olaparib for an extended time. […] Taken together, the experiments described here indicate that inhibition of ATM blocks telomere elongation while activation of ATM stimulates telomere elongation.
Telomere lengths of SL13 cells treated with 10 μM KU55933 were measured at different population doublings (PD) using genomic Southern blot analysis. […] Boxed numbers indicate the pixel positions corresponding to the blot.
To examine the in vivo chr4 cleavage, genomic DNA of SL13 treated with doxycycline for various time points was extracted using the Puregene™ Core Kit A (Qiagen) and digested with NcoI restriction enzyme (NEB). […] Labeled probe was counted and 10^6 counts/ml (probe) or 10^4 counts/ml (2-log ladder) was denatured at 100° C. for 5 minutes and added to the pre-hybridization solution and hybridized overnight at 42° C. […]

Row | SMILES | de novo telomere addition / telomere elongation in ADDIT assay (in words) [1] | percentage of CCS reads with de novo telomere addition (mean and SEM) [1] | bulk telomere length ([2]; SL13 cells grown in 10 μM KU55933, different population doublings) | telomere length by Southern blot ([2]; SL13 cells grown in presence of Olaparib for 55 population doublings)
1 | O=c1cc(-c2cccc3c2Sc2ccccc2S3)oc(N2CCOCC2)c1 [KU55933] | significantly fewer telomere elongation products | 12.45±1.16% | telomere shortening also occurred, although at a somewhat slower rate | –
2 | O=C(c1cc(Cc2n[nH]c(=O)c3ccccc23)ccc1F)N1CCN(C(=O)C2CC2)CC1 [Olaparib] | small increase in telomere elongation | 26% and 26.1±1.19% | – | Telomere length gradually increased; also recorded: gradually increased after 25 PDs
